By pEC50 is commonly meant the negative decadic logarithm of the EC50, by convention in mol/L. By pIC50 is commonly meant −log10 of the IC50, conventionally taken in molar units. Lower therefore signals a high IC50.

pEC50, pIC50: −log10 of the molar value. Active and inactive are the calls of the source.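 How the source made its calls: active means compounds giving half or more protection of infected cells from virus-caused growth loss, again on retest; inactive means the rest.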

This test concerns CEM cells HIV-1 protection, formazan growth assay. Kind of test: NCI AIDS Antiviral Assay. The following applies: for pIC50: measured here: growth of uninfected CEM cells. The procedure, abridged: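 Steps: treat uninfected and HIV-1-infected human CEM cells at five drug levels; quantify growth by soluble formazan; retest any compound reaching 50% protection; classify actives from the retest.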

In the case of `O=C1NC2(CCCCC2)C2CCCCCC12` (stereo unspecified), the result was inactive.

In the case of `COc1cc2c(cc1OC)[C@H](C)N1CCc3cc(OC)c(OC)cc3[C@@H]1C2`, the pEC50 was below 3.70 and the pIC50 is below 3.70.

Regarding `CCN(CC)CCn1c2cc3c(cc2c(=O)c2cccnc21)OCCO3`, the pEC50 is below 3.70 and the pIC50 was 5.18.

As to `O=C1NC(SSC2=NNC3(C(=O)N2)c2ccccc2-c2ccccc23)=NNC12c1ccccc1-c1ccccc12`, the result was inactive.

With `CS(=O)(=O)Nc1ccc2oc(=O)c3ccccc3c2c1`, the pEC50 was below 3.70 and the pIC50 is 4.62.

`O=C(CSc1nc(-c2ccccc2)c(-c2ccccc2)[nH]1)NNC(=S)Nc1ccccc1`: the pEC50 was below 4.25 and the pIC50 is 4.53.

Consider `ClC(Cl)=C1C(=C(Cl)Cl)C(Cl)(Cl)C1(Cl)Cl`, for which the pEC50 was below 4.28 and the pIC50 was 5.55.

`CC(=O)Nc1ccc([As](=O)(O)O)cc1NC(C)=O`: the pEC50 was below 3.70 and the pIC50 is 4.55.

On to `CC(=O)[C@H]1CC[C@@H]2[C@]1(C)CC=C1[C@]23C=C[C@]2(C[C@@H](O)CC[C@]12C)C(C(=O)O)C3C(=O)O` (stereo partly specified), for which the outcome was inactive.

With `COC(=O)c1c(C)cccc1C1CN=NC12Cc1cc(C)cc(C)c1C2=O` (stereo unspecified), the pEC50 is below 3.70 and the pIC50 is 4.48.

As to `N/N=C(/c1ccccc1)c1cccc([N+](=O)[O-])c1`, the pEC50 was below 3.70 and the pIC50 is 3.78.

With `CC(=O)Oc1ccc(N2C(=O)C3c4[nH]c5ccccc5c4C4CCC(C(C)(C)C)CC4C3C2=O)cc1` (stereo unspecified), the pEC50 was below 3.70 and the pIC50 is 5.01.

For the compound `CC(CO)C1=C(c2c[nH]c3ccccc23)C2C(C)C[C@H](O)C3(C)C(C)CCC(O)C23CC1` (stereo partly specified), the outcome was inactive.

`O=C(Cc1ccccc1)NC(C(=O)c1ccccc1)c1ccccc1` (stereo unspecified): the pEC50 is below 4.10 and the pIC50 was below 4.10.

On to `O=C1c2ccccc2C(=O)N1n1c(Cc2ccccc2)n[nH]c1=O`, for which the pEC50 is below 3.70 and the pIC50 was below 3.70.

For `O=c1c(-c2ccc(O)cc2)coc2cc(OC3OC(CO)C(O)C(O)C3O)cc(O)c12` (stereo unspecified), the pEC50 was below 3.70 and the pIC50 was below 3.70.

On to `CN1CC=C(c2cccn2C)CC1`, for which the pEC50 was below 3.70 and the pIC50 is 3.88.

For `C=CCNC(=O)NCCCC(NC(C)=O)C(=O)NCc1ccccc1` (stereo unspecified), the pEC50 was below 4.14 and the pIC50 was below 4.14.

Regarding `O=c1ccn(CC2COC(CP(=O)(O)O)O2)c(=O)[nH]1` (stereo unspecified), the pEC50 is below 3.70 and the pIC50 was below 3.70.

For the compound `COc1cccc(C2c3cc4c(cc3OC(Nc3ccccc3)C2C)OCO4)c1OC` (stereo unspecified), the pEC50 was below 3.70 and the pIC50 was 5.53.

`CC(=O)OCC1OC(n2c3c(c(-c4ccc(C)cc4)c(C#N)c2=S)C(=O)CC(C)(C)C3)C(OC(C)=O)C(OC(C)=O)C1OC(C)=O` (stereo unspecified): the pEC50 is below 3.70 and the pIC50 was 4.78.

With `NC(=O)NC(=O)c1ccco1`, the pEC50 is below 3.70 and the pIC50 was below 3.70.

Consider `O=C(OC1CC(OC(=O)c2cc(O)c(O)c(O)c2)(C(=O)O)C[C@H](OC(=O)c2cc(O)c(O)c(O)c2)C1OC(=O)c1cc(O)c(O)c(O)c1)c1cc(O)c(O)c(O)c1` (stereo partly specified), for which the result was inactive.

As for `CCc1cc2c(cc1CCCC(=O)O)CC1(Cc3ccc(C(=O)O)cc3C1)C2` (stereo unspecified), the pEC50 was below 3.70 and the pIC50 was 3.81.

With `Nc1ccn(C2CCC(CO)O2)c(=O)n1` (stereo unspecified), the pEC50 is 5.33 and the pIC50 was 4.87.

As to `CCCN(CCCc1ccccc1)CCc1ccc2[nH]c(=S)[nH]c2c1`, the pEC50 was below 3.70 and the pIC50 was 4.45.

Turning to `C=C[C@H](C)[C@H](O[Si](C)(C)C(C)(C)C)c1c(O)c2c(c3c(CCC)cc(=O)oc13)OC(C)(C)C=C2`, the pEC50 was below 3.70 and the pIC50 was 4.40.

Regarding `CCOC(=O)N/N=C(\CC)NO`, the pEC50 was below 3.70 and the pIC50 was below 3.70.

For `Cc1ccc(C(c2c(O)c3ccccc3n(-c3ccccc3)c2=O)c2c(O)c3ccccc3n(-c3ccccc3)c2=O)cc1`, the pEC50 is below 4.90 and the pIC50 was below 4.90.

Turning to `O=C(Nc1ccccc1)c1cc(S(=O)(=O)n2cc[nH]c2=O)c(S)cc1Cl`, the pEC50 is below 3.70 and the pIC50 was below 3.70.

Regarding `Cc1ccc([P+](Cc2ccccc2)(c2ccccc2)c2ccc(C)cc2)cc1`, the pEC50 was below 3.70 and the negative logarithm of the IC50 (pIC50) was 6.13.

For the compound `CCOC(=O)CC1C(C(=O)OCC)=Cn2c([nH]c3cccc4cccc2c43)=C1C(=O)OCC` (stereo unspecified), the pEC50 is below 3.70 and the pIC50 was 4.51.

With `O=C1NC(=O)C(c2ccccc2)(c2ccccc2)N1`, the pEC50 was below 3.43 and the pIC50 is below 3.43.

In the case of `CC1(C)CNCC2(C)OCCCCCCCCCCOC3(C)CNCC(C)(C)[N-]C(=O)C(C)(CNCC(C)(C)[N-]C3=O)OCCCCCCCCCCOC(C)(CNCC(C)(C)[N-]C2=O)C(=O)[N-]1.[Ni+2].[Ni+2]`, the pEC50 was below 3.70.

`Nc1ccc([C@H]2C(=O)N[C@H]3CCC[C@H]32)cc1`: the pEC50 was below 3.38 and the pIC50 was below 3.38.

Consider `CCCOC(C)OCCC#CCC(C)OC(=O)CC(Cl)(Cl)Cl` (stereo unspecified), for which the pEC50 is below 3.70 and the pIC50 is below 3.70.

With `CC(C)(C)OC(=O)C(C1NC2C(=O)OCC2(CO)S1)N1C(=O)c2ccccc2C1=O` (stereo unspecified), the pEC50 was below 3.70 and the pIC50 was below 3.70.

On to `COc1cccc(C=C(C#N)C#N)c1OC`, for which the pEC50 was below 3.70 and the pIC50 was below 4.00.

For `c1ccc(C2ON2CCCN2OC2c2ccccc2)cc1` (stereo unspecified), the pEC50 was below 3.70 and the pIC50 is below 3.70.

`CC1CC2C(=O)NC(=O)C2c2[nH]c3ccccc3c21` (stereo unspecified): the result was inactive.

For the compound `COc1ccc(/C=C2\N=C(SC)N(CN3CCCCC3)C2=O)cc1`, the pEC50 is below 3.70 and the pIC50 was below 3.70.

As for `NC1=NC(=O)C(CC(=O)c2ccc(Cl)cc2)S1` (stereo unspecified), the pEC50 was below 3.70 and the negative logarithm of the IC50 (pIC50) was below 3.70.

For `Nc1nc(N)c(-c2ccc(Cl)cc2)c(CCC(=O)Nc2cccc(C(F)(F)F)c2)n1`, the pEC50 was below 4.92 and the pIC50 was below 4.92.

Consider `O=C1OC(OCC#CCOC2OC(=O)C(Cl)=C2Cl)C(Cl)=C1Cl` (stereo unspecified), for which the pEC50 is below 3.70 and the negative-log IC50 (pIC50) is 5.77.

Regarding `COC(=O)Cc1nc2ccccc2o1`, the pEC50 is below 2.89 and the pIC50 is 4.47.

As to `CCOC(=O)C1=C(Nc2cccc3ccccc23)OCC1=O`, the outcome was inactive.

Turning to `CCCOCN1COCN=C1NC#N`, the pEC50 is below 3.35 and the pIC50 was 3.38.

`CCNC(=O)N(CC)CN(CC)C(=O)NCC`: the pEC50 was below 3.74 and the pIC50 was 4.02.

Consider `OCc1ccc2c(c1)CC1(Cc3ccccc3C1)C2`, for which the pEC50 was below 3.70 and the pIC50 is 4.70.

For the compound `CC1(C)c2ccccc2N2C(c3ccccc3)=NOC21C` (stereo unspecified), the pEC50 is below 4.59 and the pIC50 is below 4.59.

As to `NC(c1ccccc1)P(=O)(O)O` (stereo unspecified), the pEC50 is below 3.70 and the pIC50 is below 3.70.

On to `CCN(CC)S(=O)(=O)c1ccc([O-])c(C(=O)[O-])c1.[Cu+2].[OH3+]`, for which the pEC50 is below 3.70 and the pIC50 was 4.55.

Turning to `CCOP1(=O)OCC(C(C)(C)C)CO1` (stereo unspecified), the pEC50 is below 3.70 and the pIC50 is below 3.70.

`CCCc1cc(=O)oc2c3c(cc(OC)c12)O[C@H](C)C(C)C3=O` (stereo partly specified): the pEC50 is below 3.70 and the pIC50 was 4.23.

For `COc1cc(Oc2nc3ccc(C(F)(F)F)cc3nc2-c2ccccc2)cc(OC)c1OC`, the pEC50 was below 4.03 and the pIC50 is 4.24.

With `O=C(O)c1c[nH]c2cc(O)ccc2c1=O`, the pEC50 is below 3.70 and the pIC50 was below 3.70.

Take `COC(=O)c1c(C(=O)OC)c(C(=O)OC)c(C(=O)OC)c1C(=O)OC`: the outcome was inactive.

In the case of `O=C(CCCN1CCc2[nH]c3cc(F)ccc3c2C1)c1ccc(F)cc1`, the pEC50 was below 3.70 and the pIC50 was 4.61.

Take `CC(C)(C)c1cc[n+](C[n+]2ccc(C(C)(C)C)cc2)cc1`: the pEC50 is below 3.70 and the pIC50 is below 3.70.

Consider `O=Nc1c(-c2ccccc2)nc2cnccn12`, for which the pEC50 was below 3.70 and the pIC50 was 5.23.

In the case of `C1COCCSC2=C(SCCO1)SC(=C1SC3=C(SCCOCCOCCS3)S1)S2`, the pEC50 was below 4.75 and the pIC50 was below 4.75.

Consider `CN(C)c1ccc(-c2nc(-c3cc4c(ccc5ccccc54)oc3=O)cs2)cc1`, for which the pEC50 was below 4.00 and the pIC50 is below 4.00.

`CN/N=C(/Cc1occc(=O)c1O)C(=O)Nc1ccc(C)c(C)c1`: the pEC50 was below 3.54 and the pIC50 is below 3.54.

`CC(C)(C)N1C(=O)N=[N+](/C(=C(\c2ccccc2)n2nc([O-])n(C(C)(C)C)c2=O)c2ccccc2)C1=O`: the pEC50 is below 4.00 and the pIC50 is below 4.00.

Regarding `Cc1cc(S(=O)(=O)Nc2nc(Nc3ccc(Cl)cc3)nn2C)c(S)cc1Cl`, the pEC50 was below 3.70 and the pIC50 is 4.08.

For `CN(C)NP(=O)(NN(C)C)NN(C)C`, the pEC50 is below 3.70 and the pIC50 was below 3.70.

Regarding `COc1ccc(N2C(=O)CC(c3c[nH]c4ncccc34)C2=O)cc1` (stereo unspecified), the pEC50 was below 3.70 and the pIC50 was 4.37.

With `CON(C)C(=O)C(C)N(Cc1ccccc1)Cc1ccccc1` (stereo unspecified), the pEC50 is below 4.08 and the pIC50 is 4.48.

With `CCCCCCCCCCCCCCCCSS(=O)(=O)c1ccc(C)cc1`, the pEC50 was below 4.50 and the pIC50 was below 4.50.

`COC(=O)C1=NC(=S)NC(c2ccccc2)C1c1nc2ccccc2s1` (stereo unspecified): the outcome was inactive.

As for `Cc1ccc(NC(=O)CC/C(CC(=O)C(C)(C)C)=N\NC(=O)C[n+]2ccccc2)cc1C`, the pEC50 was below 4.12 and the negative-log IC50 (pIC50) is below 4.12.

Regarding `OCC1COc2cc(Cl)c(Cl)cc2O1` (stereo unspecified), the pEC50 was below 3.70 and the negative-log IC50 (pIC50) is 3.92.

As to `CCN(CC)C1C(=O)NC1C#Cc1ccccc1` (stereo unspecified), the pEC50 is below 3.70 and the pIC50 was 4.07.

The record behind these values is PubChem BioAssay AID179 (DTP/NCI, 2004).
